Patent US6974870B2, “Substituted 3-amino-thieno [2,3-b]pyridine-2-carboxylic acid amide compounds and processes for preparing and their uses” (Boehringer Ingelheim Phamaceuticals, Inc., priority 2002, dated 2005)

What was measured:
[1] = target: T1, human IKKβ (Homo sapiens, UniProt O14920); test: IKKβ kinase inhibition assay (phosphorylation of IκBα substrate, 33P-ATP); format: biochemical; conditions: flag-tagged human IKKβ 0.9 μg/ml, GST-IκBα (1-54) 53 μg/ml, 250 nM ATP, 1 hour at 25° C.
T1 construct: FLAG (N)
T1 sequence (O14920 1-756): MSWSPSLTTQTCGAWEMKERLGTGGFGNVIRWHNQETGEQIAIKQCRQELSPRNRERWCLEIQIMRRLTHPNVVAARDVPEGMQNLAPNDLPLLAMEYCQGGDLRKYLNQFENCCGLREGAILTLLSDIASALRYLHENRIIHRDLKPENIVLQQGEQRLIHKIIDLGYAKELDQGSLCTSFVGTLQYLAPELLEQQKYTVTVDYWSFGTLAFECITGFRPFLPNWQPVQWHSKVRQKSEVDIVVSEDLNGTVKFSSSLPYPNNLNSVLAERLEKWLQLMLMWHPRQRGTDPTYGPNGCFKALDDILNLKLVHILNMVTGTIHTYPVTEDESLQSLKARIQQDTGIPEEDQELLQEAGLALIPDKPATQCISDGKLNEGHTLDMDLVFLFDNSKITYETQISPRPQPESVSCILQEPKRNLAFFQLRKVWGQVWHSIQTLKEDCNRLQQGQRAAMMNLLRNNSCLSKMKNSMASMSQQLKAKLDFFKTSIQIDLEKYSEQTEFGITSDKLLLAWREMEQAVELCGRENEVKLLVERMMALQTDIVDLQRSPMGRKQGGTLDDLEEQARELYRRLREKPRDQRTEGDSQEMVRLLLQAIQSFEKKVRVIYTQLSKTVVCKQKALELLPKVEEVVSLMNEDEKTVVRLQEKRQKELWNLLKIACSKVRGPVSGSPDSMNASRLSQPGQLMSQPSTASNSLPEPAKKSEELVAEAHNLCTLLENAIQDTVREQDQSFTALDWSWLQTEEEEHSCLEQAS
Method in brief: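 N-terminally Flag-tagged human IKKα (3.6 μg/ml) or IKKβ (0.9 μg/ml) phosphorylating GST-IκBα(1-54) (245 or 53 μg/ml respectively), 250 nM ATP plus [33P]ATP, pH 7.5 HEPES with Mg2+/Mn2+, 2% DMSO; 5 min compound preincubation, 1 h at 25 °C.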

[2] = target: T2, human IKKα (Homo sapiens, UniProt O15111); test: IKKα kinase inhibition assay (phosphorylation of IκBα substrate, 33P-ATP); format: biochemical; conditions: flag-tagged human IKKα 3.6 μg/ml, GST-IκBα (1-54) 245 μg/ml, 250 nM ATP, 1 hour at 25° C.
T2 construct: FLAG (N)
T2 sequence (O15111 1-745): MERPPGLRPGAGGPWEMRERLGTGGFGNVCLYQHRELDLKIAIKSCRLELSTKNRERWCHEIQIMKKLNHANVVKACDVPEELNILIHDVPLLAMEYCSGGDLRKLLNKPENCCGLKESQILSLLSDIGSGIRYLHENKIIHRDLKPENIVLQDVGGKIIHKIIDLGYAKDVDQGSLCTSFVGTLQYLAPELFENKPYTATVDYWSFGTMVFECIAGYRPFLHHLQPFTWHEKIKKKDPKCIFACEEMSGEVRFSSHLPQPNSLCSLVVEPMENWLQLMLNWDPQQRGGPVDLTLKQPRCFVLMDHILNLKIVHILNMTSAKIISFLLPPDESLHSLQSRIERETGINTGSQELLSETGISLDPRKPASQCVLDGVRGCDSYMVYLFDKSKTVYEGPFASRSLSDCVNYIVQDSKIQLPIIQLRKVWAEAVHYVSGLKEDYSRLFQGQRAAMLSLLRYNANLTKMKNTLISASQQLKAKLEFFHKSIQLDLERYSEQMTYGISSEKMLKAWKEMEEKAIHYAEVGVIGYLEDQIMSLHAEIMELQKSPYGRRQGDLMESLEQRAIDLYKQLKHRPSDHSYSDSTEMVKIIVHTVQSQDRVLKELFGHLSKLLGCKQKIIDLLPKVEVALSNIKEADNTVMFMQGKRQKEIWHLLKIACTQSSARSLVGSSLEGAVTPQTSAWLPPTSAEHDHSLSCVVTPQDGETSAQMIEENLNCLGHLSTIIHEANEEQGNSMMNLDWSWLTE
Procedure: The inhibition of IKKα and IKKβ by the compounds of the present invention was determined with the following assay that measures the phosphorylation of the IκBα substrate by the respective kinases. The enzymes used in the assay were N-terminally flag-tagged versions of the human IKKβ or IKKα and the substrate was a GST fusion protein with IκBα (amino acids 1-54).
The reaction mixtures (60 μl) contained 20 mM HEPES pH 7.5, 10 mM MgCl2, 2 mM MnCl2, 100 mM NaCl, 100 μM Na3VO4, 20 mM β-glycerophosphate, 1 mM DTT, 2% DMSO, 250 nM ATP, 0.4 nM [^33P]ATP (specific activity, 3000 Ci/mmol), IκBα substrate, IKK enzyme and test compound. The reaction mixtures contained either 3.6 μg/ml IKKα and 245 μg/ml IκBα or 0.9 μg/ml IKKβ and 53 μg/ml IκBα.
Reactions were initiated by adding a solution of IκBα substrate and ATP to polypropylene plates containing IKK enzyme that was pre-incubated for 5 minutes with test compound. Then the reaction mixtures were incubated for 1 hour at 25° C., placed on ice and quenched by the addition of 150 μl 10% trichloroacetic acid and 5% disodium pyrophosphate. After mixing, the entire contents of the quenched reaction mixtures were transferred to a pre-wetted Packard UniFilter filtration plate, aspirated and washed 6 times with 250 μl of ddH2O using the Packard Filtermate Harvester. Filtration plates were then air dried, supplemented with 40 μl of Microscint 20 scintillation fluid and the ^33P-labeled reaction products were quantified using the Packard TopCount scintillation counter.
Compounds were tested in three-fold serial dilutions and inhibitor concentrations to achieve 50% inhibition of enzyme activity (i.e., IC50) were derived from dose-reponse curves using SAS software (SAS Institute, Cary N.C.). A non-linear regression analysis based on the Hill equation was applied to the percent inhibition versus concentration data. In all cases, compound concentrations were verified by HPLC.

| Structure (SMILES) | melting point | IC50 [1] | IC50 [2] |
| --- | --- | --- | --- |
| CCCc1cc(N2CCC(NCC(O)c3ccc(NS(C)(=O)=O)cc3)CC2)nc2sc(C(N)=O)c(N)c12 (centres unmarked) [Example 12, 3-Amino-6-{4-[2-hydroxy-2-(4-methanesulfonylamino-phenyl)-ethylamino)-piperidin-1-yl]-4-propyl-thieno[2,3-b]pyridine-2-carboxylic acid amide] | 199 to 200 °C |  |  |
| NC(=O)c1sc2nc(N3CCC(N)CC3)cc(C(=O)Nc3cccnc3)c2c1N [3-Amino-6-(4-amino-piperidin-1-yl)-thieno[2,3-b]pyridine-2,4-dicarboxylic acid 2-amide 4-pyridin-3-ylamide] |  | < 1 µM | ≤ 10 µM |
| NC(=O)c1sc2nc(N3CCC(N)CC3)cc(/C=C/c3ccncc3)c2c1N [3-Amino-6-(4-amino-piperidin-1-yl)-4-((E)-2-pyridin-4-yl-vinyl)-thieno[2,3-b]pyridine-2-carboxylic acid amide] |  | < 1 µM | ≤ 10 µM |
| CCCc1cc(N2CCC(NCC(O)c3ccc(-c4nccs4)cc3)CC2)nc2sc(C(N)=O)c(N)c12 (centres unmarked) [3-Amino-6-{4-[2-hydroxy-2-(4-thiazol-2-yl-phenyl)-ethylamino]-piperidin-1-yl}-4-propyl-thieno[2,3-b]pyridine-2-carboxylic acid amide] |  | < 1 µM | ≤ 10 µM |
| COC(=O)c1ccc(/C=C/c2cc(N3CCC(N)CC3)nc3sc(C(N)=O)c(N)c23)cc1 [4-{(E)-2-[3-Amino-6-(4-amino-piperidin-1-yl)-2-carbamoyl-thieno[2,3-b]pyridin-4-yl]-vinyl}-benzoic acid methyl ester] |  | < 1 µM | ≤ 10 µM |
| CCCc1cc(N2CCC(NCC(=O)Nc3cccc4ccccc34)CC2)nc2sc(C(N)=O)c(N)c12 [3-Amino-6-{4-[(naphthalen-1-ylcarbamoylmethyl)-amino]-piperidin-1-yl}-4-propyl-thieno[2,3-b] pyridine-2-carboxylic acid amide] |  | < 1 µM | ≤ 10 µM |

Other lines, results leading:

| melting point | IC50 [1] | IC50 [2] | Structure (SMILES) |
| --- | --- | --- | --- |
|  | < 1 µM | ≤ 10 µM | NC(=O)c1sc2nc(N3CCC(NCC(O)c4ccc(-c5nccs5)cc4)CC3)cc(C(F)(F)F)c2c1N (centres unmarked) [3-Amino-6-{4-[2-hydroxy-2-(4-thiazol-2-yl-phenyl)-ethylamino]-piperidin-1-yl}-4-trifluoromethyl-thieno[2,3-b]pyridine-2-carboxylic acid amide] |
|  | < 1 µM | ≤ 10 µM | NC(=O)c1sc2nc(N3CCC(N)CC3)cc(C(N)=O)c2c1N [3-Amino-6-(4-amino-piperidin-1-yl)-thieno[2,3-b]pyridine-2,4-dicarboxylic acid diamide] |
|  | < 1 µM | ≤ 10 µM | CC(C)c1cc(N2CCC(N)CC2)nc2sc(C(N)=O)c(N)c12 [3-Amino-6-(4-amino-piperidin-1-yl)-4-isopropyl-thieno[2,3-b] pyridine-2-carboxylic acid amide] |
|  | < 1 µM | ≤ 10 µM | CNC1CCN(c2cc(C(F)(F)F)c3c(N)c(C(N)=O)sc3n2)CC1 [3-Amino-6-(4-methylamino-piperidin-1-yl)-4-trifluoromethyl-thieno[2,3-b]pyridine-2-carboxylic acid amide] |
|  | < 1 µM | ≤ 10 µM | CCCc1cc(N2CCC(NC3CC3)CC2)nc2sc(C(N)=O)c(N)c12 [3-Amino-6-(4-cyclopropylamino-piperidin-1-yl)-4-propyl-thieno[2,3-b] pyridine-2-carboxylic acid amide] |
|  | < 1 µM | ≤ 10 µM | CCCc1cc(N2CCC(NCC(=O)O)CC2)nc2sc(C(N)=O)c(N)c12 [[1-(3-Amino-2-carbamoyl-4-propyl-thieno[2,3-b]pyridin-6-yl)-piperidin-4-ylamino]-acetic acid] |
|  | < 1 µM | ≤ 10 µM | CNC1CCN(c2cc(C(F)F)c3c(N)c(C(N)=O)sc3n2)CC1 [3-Amino-4-difluoromethyl-6-(4-methylamino-piperidin-1-yl)-thieno[2,3-b]pyridine-2-carboxylic acid amide] |
|  | < 1 µM | ≤ 10 µM | Cc1cc(N2CCC(N)CC2)nc2sc(C(N)=O)c(N)c12 [3-Amino-6-(4-amino-piperidin-1-yl)-4-methyl-thieno[2,3-b] pyridine-2-carboxylic acid amide] |
|  | < 1 µM | ≤ 10 µM | CNC1CCN(c2cc(OCC(F)(F)F)c3c(N)c(C(N)=O)sc3n2)CC1 [3-Amino-6-(4-methylamino-piperidin-1-yl)-4-(2,2,2-trifluoro-ethoxy)-thieno[2,3-b]pyridine-2-carboxylic acid amide] |
